Tested on: clonal CB1 zebrafish
Assay: Tumor induction by continuous immersion in DEN solution
Format: in vivo
Conditions: 100 ppm DEN immersion for 8 weeks
Procedure: Tumor induction. Sixty-five 2.5-month-old fish from the clonal CB1 line were used for tumor induction by continuous immersion in N-nitrosodiethylamine (DEN) solution (100 ppm) during the 8 weeks. During DEN, exposure fish were maintained in 20-L acrylic tanks equipped with a mechanical filter and an automatic heater. The filters were cleaned twice weekly. The complete exchange of water containing the carcinogen was done every 2 weeks. The water temperature was maintained at 26±0.5° C. Following completion of DEN exposure the fish were transferred to a 20-L system tank and remained under observation for up to 9 months.
The grossly visible tumors began to emerge in fish 3 to 7 months after the beginning of exposure to DEN. Four spontaneous tumors diagnosed as acinar cell carcinomas of the pancreas were detected in 10.5- to 18-month-old female CB1 fish (See, e.g., FIG. 1G).

In the case of `CCN(CC)N=O` [DEN, N-nitrosodiethylamine], the “emergence of grossly visible tumors after the beginning of exposure” value (CB1 fish) was 3 to 7 months and the “primary tumors localized in the abdominal area” value (sixty-five 2.5-month-old CB1 fish, observed up to 9 months) was 35.
